Tests used:
[1] = tested on: murine CD4+ cells; experiment: Cytokine generation (ELISA) in murine CD4+ cells stimulated with anti-CD3 and anti-CD28; type: cell-based, mouse; conditions: for Influence on IL-10 / TNF release: CD4+ cells
Text: Experimental animals (C57BL/6 mice, BALB/c mice and Dark Agouti rats) were obtained from the Animal House Facility of the Institute for Biological Research “Sinisa Stanković”, Belgrade, Serbia. Spleen cells (SPC) were isolated from murine spleens and lymph node cells (LNC) were obtained from rat cervical lymph nodes of untreated animals. Draining lymph node cells (DLNC) were obtained from popliteal lymph nodes 8-10 days after immunization of rats with myelin basic protein (guinea pig MBP, kind gift from professor Alexander Fluegel, University of Goettingen, Germany) and complete Freund's adjuvant (CFA, Difco, Detroit, Mich.). The organs were mechanically disrupted, passed through 40-μm nylon mesh filter and the resulting suspension was collected by centrifugation. Red blood cells from single cell suspensions obtained from spleens were lysed using RBC Lysis Buffer (eBioscience, San Diego, Calif.). CD4+ cells were purified from SPC using biotin conjugated antibody specific for CD4 (eBioscience) and IMag SAv particles plus (BD Biosciences, San Diego, Calif.). Obtained purity of CD4 population was more than 97% as determined by flow cytometry. SPC and LNC were seeded at 5×10^6/ml/well, DLNC at 2.5×10^6/ml/well and CD4+ cells at 1×10^6/ml/well of 24-well plates. Cells infiltrating spinal cords (SC) were obtained from SC of rats immunized with MBP+CFA at the time when rats suffered from severe clinical signs of experimental autoimmune encephalomyelitis (EAE). Rats were perfused with sterile PBS, SC were homogenized, adjusted to 30% Percoll (Sigma-Aldrich) and overlaid on 70% Percoll gradient. Following centrifugation at 870 g for 50 min the SC cells (SCC) were recovered from the […] Percoll interface and washed in RPMI-1640 medium. SCC were seeded at 0.5×106/200 μl/well of 96-well plates. SPC and LNC were stimulated with 2.5 μg/ml concanavalin A (ConA, Sigma-Aldrich), DLNC with MBP (10 ng/ml), CD4+ cells with anti-CD3 and anti-CD28 antibody (1 μg/ml each, both from eBioscience) and SCC were left untreated.
Cytokine concentration in cell culture supernatants was determined by sandwich ELISA using MaxiSorp plates (Nunc, Rochild, Denmark) and anti-cytokine paired antibodies according to the manufacturer's instructions. Samples were analyzed in duplicate for murine/rat IL-17, murine IL-10, murine TNF, murine IL-4 (eBioscience), murine IFN-γ, rat IFN-γ, rat IL-4 (R&D, Minneapolis, Minn.), rat IL-10 and rat TNF (BD Biosciences). The results were calculated using standard curves made on the basis of known concentrations of the appropriate recombinant cytokines.
CD4+ cells were purified from C57BL/6 SPC and stimulated with anti-CD3 and anti-CD28 antibodies in the presence of various concentrations of Saq-NO for 24 hours. The influence of Saq-NO on cytokine generation was compared to its influence on CD4+ cell viability and to the influence of Saq on the same parameters. […] Thus, Saq-NO directly affects T cell cytokine production.

[2] = tested on: MOG-induced EAE; experiment: MOG-induced EAE in C57Bl6 mice; type: in vivo; conditions: for Clinical course of the disease: day 7 to 30; for Disease after interruption of the late prophylactic treatment: observed for further 11 days
Text: (§1) Seven to 8 weeks-old male C57Bl6 mice and 6 to 7 weeks-old female SJL mice (Harlan Laboratories srl, San Pietro al Natisone, Udine, Italy) were used in the experiments. They were kept under standard laboratory conditions (non specific pathogen free) with free access to food (Harlan Global Diet 2018) and water and were allowed to adapt at least one week to their environment before commencing the study.
MOG35-55 was synthesized by Genemed synthesis (San Francisco Calif.). The mice were immunized with 200 μg MOG emulsified in CFA with 1 mg of Mycobacterium tuberculosis H37RA (Difco, Detroit, Mich., USA) to make a 1:1 emulsion. Each mouse received subcutaneous injections of 200 μl emulsion divided among two sites draining into the axillary lymph nodes. Pertussis toxin (Calbiochem, Nottingham, UK) was used as a coadjuvant and was administered i.p. at the dose of 200 ng/mouse on day 0 and 2 post immunization. The mice were observed every day by measuring their body weights and clinical signs of EAE until 30 days after immunization. These clinical grading were carried out by an observer unaware of the treatment: 0=no sign of disease; 0.5=partial tail paralysis; 1=tail paralysis; 1.5=tail paralysis+partial unilateral hindlimb paralysis; 2=tail paralysis+hindlimb weakness or partial hindlimb paralysis; 2.5=tail paralysis+partial hindlimb paralysis (lowered pelvi); 3=tail paralysis+complete hindlimb paralysis; 3.5=tail paralysis+complete hindlimb paralysis+incontinence; 4=tail paralysis+hindlimb paralysis+weakness or partial paralysis of forelimbs; 5=moribund or dead.
The study involved 4 groups of 10 animals each. All the groups were immunized with the MOG35-55 peptide in CFA and pertuxis toxin, according to the immunization procedure described above and assigned to the following treatments:
The late prophylactic treatment started on day 7 immunization and continued until day 30; the therapeutic regime started at the onset of the disease and continued for 23 consecutive days.

[3] = tested on: PLP-induced EAE; experiment: PLP-induced EAE in SJL mice; type: in vivo
Text: as §1
PLP (139-151) was synthesized by Genemed synthesis (San Francisco Calif.). EAE was induced as described by J. St. Louis et al. (4). The mice were immunized with 75 μg PLP emulsified in CFA with 6 mg/ml Mycobacterium tuberculosis H37RA (Difco, Detroit, Mich., USA) to make a 1:1 emulsion. Each mouse received subcutaneous injections of 200 μl emulsion divided among four sites draining into the axillary and inguinal lymph nodes. Pertussis toxin (Calbiochem, Nottingham, UK) was used as a co-adjuvant and was administered i.p. at the dose of […] on day 0 and 2 post immunization. The mice were observed every day by measuring their body weights and clinical signs of EAE until 30 days after immunization. These clinical grading were carried out by an observer unaware of the treatment: 0=no sign of disease; 0.5=partial tail paralysis; 1=tail paralysis; 1.5=tail paralysis+partial unilateral hindlimb paralysis; 2=tail paralysis+hindlimb weakness or partial hindlimb paralysis; 2.5=tail paralysis+partial hindlimb paralysis (lowered pelvi); 3=tail paralysis+complete hindlimb paralysis; 3.5=tail paralysis+complete hindlimb paralysis+incontinence; 4=tail paralysis+hindlimb paralysis+weakness or partial paralysis of forelimbs; 5=moribund or dead.
Four groups of 7/8 mice were treated under a late prophylactic regime from day 7 to day 30 as follow:
Group 1: Saquinavir 10 mg/Kg (i.p. once daily)
Group 2: Saq-NO 10 mg/Kg (s.c. once daily)
Group 3: Saq-NO 20 mg/Kg (i.p. once daily)
Group 4: DMSO/H2O (vehicle) (i.p. once daily)

[4] = anti-CD3 and anti-CD28, 24 hours
[5] = late prophylactic treatment, 10 mg/Kg i.p. daily
[6] = late prophylactic, 10 mg/Kg once daily

| SMILES | Influence on IL-10 [1, 4] | TNF release [1, 4] | IL-17 secretion from purified CD4+ T cells at low concentrations ([1]; concentrations of 2.5 and 5 mM) | Clinical course of the disease [2, 5] | Disease after interruption of the late prophylactic treatment [2] | Cumulative score and duration of the disease compared to vehicle treated mice [3, 6] | Generation of IFN-g, IL-4 and IL-17 ([1]; CD4+ cells of C57BL/6 SPC, anti-CD3 and anti-CD28, 24 hours) | Cumulative score and duration of the disease compared to vehicle treated mice ([2]; full therapeutic regime, 10 mg/Kg i.p. daily from onset, 23 days) | Time after treatment interruption to reach the clinical score of vehicle treated mice ([2]; late prophylactic treatment interrupted) | Cumulative score and duration of the disease compared to vehicle treated mice [2, 5] | Clinical course of the disease ([3]; late prophylactic, 10 mg/Kg once daily, day 7 to 30) | Cum score and duration compared to vehicle-treated mice ([3]; late prophylactic, high dose 20 mg/Kg i.p. once daily) | Disease after interruption of the treatment ([3]; observed for further 20 days) |
| --- | --- | --- | --- | --- | --- | --- | --- | --- | --- | --- | --- | --- | --- |
| CC(C)(C)NC(=O)[C@@H]1C[C@@H]2CCCC[C@@H]2CN1C[C@@H](O)[C@H](Cc1ccccc1)NC(=O)[C@H](CC(N)=O)NC(=O)c1ccc2ccccc2n1 [Saq, (2S)—N-[(2S,3R)-4-[(3S)-3-(tert-butylcarbamoyl)-decahydroisoquinolin-2-iy]-3-hydroxy-1-phenylbutan-2-il]-2-(quinolin-2-ylformamido)butanediamide, reference compound] | similarly potent | did not modulate | inhibitory effect | slightly reduced | maintained the same severity of the disease | lower but not significant |  |  |  |  |  |  |  |
| CC(C)(C)NC(=O)C1C[C@@H]2CCCC[C@@H]2CN1CC(O[N+](=O)[O-])[C@H](Cc1ccccc1)NC(=O)C(CC(N)=O)NC(=O)c1ccc2ccccc2n1 (stereo partly drawn) [Saq-NO, nitric ester of Saquinavir] | similarly potent | did not modulate |  | ameliorated | developed a strong disease | significantly lower | more effectively than Saq | significant reduction | ≤ 9 days | significantly lower | ameliorated | lower but not significant | most evidently |
